Here are results for two molecules from US10508130B2, “Crystalline polymorph of 15B-hydroxy-osaterone acetate” (ASKA Pharmaceutical Co., Ltd., priority 2016, dated 2019).

Data set [1] in a line: Thermal stability test (storage at 100° C., purity by HPLC). In kind it is physicochemical. As to conditions: in air; for colour of crystal with the passage of time / colour of crystal on the seventh day after storage: 100° C.; for colour of crystal with the passage of time: after seventh day up to 28 days. The protocol: The crystalline polymorphic form A obtained in Example 1 and the crystalline polymorphic form B obtained in Comparative Example 1 were each stored at a temperature of 100° C. for 28 days (storage condition: in a thermostatic bath, in air). During the storage, the crystals were sampled every predetermined time, and the purity of 15β-hydroxy-osaterone acetate in each sample was measured by HPLC.

Data set [2] is described as follows: Friction or pulverization stability (automatic mortar grinder, PXRD). In kind it is physicochemical. As to conditions: 50 mg pulverized one hour, pestle 124 g, 50 rpm; PXRD peak height ratio. The protocol: In an automatic mortar grinder (weight of pestle: 124 g, 50 rpm), 50 mg of a sample (the crystalline polymorphic form A or the crystalline polymorphic form B) was put, the sample was pulverized over one hour and sampled. A PXRD analysis of the sample was conducted to determine the change of a degree of crystallization. The degree of crystallization after one hour of the crystalline polymorphic form A was 46.8%, and that of the crystalline polymorphic form B was 22.2%. Thus, the crystalline polymorphic form A was stable to pulverization. Incidentally, the degree of crystallization was determined based on an intensity ratio (peak height) of a characteristic diffraction peak in the PXRD spectrum (for the crystalline polymorphic form A, a diffraction peak at 2θ=17.1°; for the crystalline polymorphic form B, a diffraction peak at 2θ=16.2°), and the change rate of crystallization degree was calculated.

Data set [3] can be described thus: Angle of repose (powder flow property). Type of data set: physicochemical. As to conditions: for Angle of repose (°) Average: average of three measurements; for Degree of flow property: evaluated based on Japanese Pharmacopoeia, General Information (Powder Flow); for Angle of repose (°) First time: first measurement; for Angle of repose (°) Second time: second measurement; for Angle of repose (°) Third time: third measurement. The method, then: Probably due to being the prism crystal, the crystalline polymorphic form A of 15β-hydroxy-osaterone acetate is characterized by a high powder flow property and a small angle of repose. For example, the powdery crystalline polymorphic form A of 15β-hydroxy-osaterone acetate has an average angle of repose of, for example, about 30 to 38°, preferably about 32 to 37° (e.g., about 33 to 37°), and more preferably about 34 to 36°, when the angle of repose is measured three times in accordance with methods for angle of repose described in The Japanese Pharmacopoeia. Incidentally, the crystalline polymorphic form B of 15β-hydroxy-osaterone acetate has an average angle of repose of, for example, about 42 to 52° (e.g., about 44 to 50°, particularly about 45 to 47°) by the same measurement as above. The angle of repose can be evaluated as the following manner. A funnel (a glass funnel having a funnel diameter of 50 mm, a stem internal diameter of 7 mm, and a stem length of 40 mm) is provided, the height from the lower end of the funnel to a base surface (an upper surface of a cylinder having a diameter of 1.5 cm) is fixed to 4.5 cm, an excess amount of a powdery sample is dropped onto the center of the cylinder surface (the base surface) through the funnel, and an incident angle of the resulting accumulated powder is measured.
The height from a lower end of a funnel to a base surface (an upper surface of a cylinder having a diameter of 1.5 cm) was fixed to 4.5 cm, an excess amount of a powdery sample was dropped onto the center of the cylinder surface (the base surface) through the funnel. An incident angle (an angle of repose) of the resulting accumulated powder was measured. This operation was repeated three times, and the average value of the angle of repose was calculated.
In Table 1, the degree of flow property is evaluated based on Japanese Pharmacopoeia, General Information (G2 Solid-state Properties, Powder Flow), which is described about the relationship between the angle of repose and the flow property.

Data set [4] is described as follows: Stability (stir-suspension) in mixed solvents. Type of data set: physicochemical. To be noted: for proportion maintaining crystal structure: stirred; for stability of crystal form to the solvents commonly used in production of preparations: acetone/heptane, acetone/water, ethanol/water mixed solvents. The protocol: To (1) an acetone/heptane mixed solvent (1:1), (2) an acetone/water mixed solvent (1:1), or (3) an ethanol/water mixed solvent (1:1) was added the crystalline polymorphic form A, and the mixture was stirred. One day after, the crystalline polymorphic form A maintained a crystal structure thereof at a proportion of 98% in the mixed solvent (1), 99% in the mixed solvent (2), and 100% in the mixed solvent (3). Three days after, the crystalline polymorphic form A maintained a crystal structure thereof at a proportion of 95% in the mixed solvent (1), 98% in the mixed solvent (2), and 99% in the mixed solvent (3). Even seven days after, the crystalline polymorphic form A maintained a crystal structure thereof at a proportion of 95% in the mixed solvent (1), 98% in the mixed solvent (2), and 99% in the mixed solvent (3).

A short description of data set [5]: Pharmacokinetics in dog (oral capsule, plasma LC-MS/MS). In kind it is in vivo. As to conditions: female dogs, 0.3 mg/kg oral, gelatin capsule with lactose hydrate, plasma 15β-hydroxy-osaterone acetate. The method, then:
For each sample of the crystalline polymorphic form A obtained in Example 1 and the crystalline polymorphic form B obtained in Comparative Example 1, the sample was mixed at a dose of 0.3 mg/kg with 100 mg of lactose hydrate (manufactured by DFE Pharma), and the mixture was filled with a gelatin capsule (manufactured by Matsuya Corporation, MM, size: No. 2) to prepare a capsule preparation. The capsule preparation containing the crystalline polymorphic form A was orally administered to a first female dog group (5 dogs), and the capsule preparation containing the crystalline polymorphic form B was orally administered to a second female dog group (5 dogs). The blood was sampled from each dog 0.5, 1, 2, 3, 4, 5, 7, 10, 24, 48, and 72 hours after oral administration, and the blood plasma from each sample was obtained by centrifugation. The concentration of 15β-hydroxy-osaterone acetate in each blood plasma was measured by an LC-MS/MS (liquid chromatography-tandem mass spectrometry) method, and a time to reach a maximum plasma concentration (Tmax) and a maximum plasma concentration (Cmax) were calculated.

Take `CC(=O)O[C@]1(C(C)=O)C[C@@H](O)[C@H]2[C@@H]3C=C(Cl)C4=CC(=O)OC[C@]4(C)[C@H]3CC[C@@]21C` [Crystalline polymorphic form A, 17α-acetoxy-6-chloro-15β-hydroxy-2-oxapregna-4,6-diene-3,20-dione]: the “colour of crystal with the passage of time” value in data set [1] is given as “maintained light brown”. In addition, the “colour of crystal on the seventh day after storage” value in data set [1] was “light brown”. Also, the “thermal stability (active ingredient content / purity of 15β-hydroxy-osaterone acetate by HPLC)” value in data set [1] (stored at 100° C. for 28 days, thermostatic bath, FIG. 5) was “only a few decreases in active ingredient content”. Besides, the “degree of crystallization after one hour” value in data set [2] was 46.8%. The “Angle of repose (°) Average” value in data set [3] is recorded as 35 °. Also, in data set [3], the “Degree of flow property” value is “Good”. Further, in data set [3], the “Angle of repose (°) First time” value was 36 °. For the same molecule, the “Angle of repose (°) Second time” value in data set [3] turned out to be 33 °. Further, the “Angle of repose (°) Third time” value in data set [3] was 38 °. Moreover, the “proportion maintaining crystal structure” value in data set [4] (acetone/heptane mixed solvent (1:1), one day after) was determined as 98%; in data set [4] (acetone/heptane mixed solvent (1:1), seven days after), 95%; in data set [4] (acetone/heptane mixed solvent (1:1), three days after), 95%; in data set [4] (acetone/water mixed solvent (1:1), one day after), 99%; in data set [4] (acetone/water mixed solvent (1:1), seven days after), 98%; in data set [4] (acetone/water mixed solvent (1:1), three days after), 98%. Further, the “proportion maintaining crystal structure” value is given as 100% in data set [4] (ethanol/water mixed solvent (1:1), one day after); 99% in data set [4] (ethanol/water mixed solvent (1:1), seven days after); 99% in data set [4] (ethanol/water mixed solvent (1:1), three days after). In addition, the “stability of crystal form to the solvents commonly used in production of preparations” value in data set [4] is “highly stable”. In addition, the “Cmax (maximum plasma concentration)” value in data set [5] is recorded as 84.2 ± 29.06 ng/mL. Further, the “Tmax (time to reach a maximum plasma concentration)” value in data set [5] turned out to be 13.8 ± 8.33 h.

For `CC(=O)O[C@]1(C(C)=O)C[C@@H](O)[C@H]2[C@@H]3C=C(Cl)C4=CC(=O)OC[C@]4(C)[C@H]3CC[C@@]21C` [Crystalline polymorphic form B, 17α-acetoxy-6-chloro-15β-hydroxy-2-oxapregna-4,6-diene-3,20-dione, reference compound], in data set [1], the “colour of crystal with the passage of time” value is given as “turned brown” and the “colour of crystal on the seventh day after storage” value was “light brown”. In addition, in data set [2], the “degree of crystallization after one hour” value is reported as 22.2%. Further, in data set [3], the “Angle of repose (°) Average” value is on record as 46 °, the “Degree of flow property” value is “Poor”, the “Angle of repose (°) First time” value was 51 ° and the “Angle of repose (°) Second time” value is 39 °. Moreover, the “Angle of repose (°) Third time” value in data set [3] was found to be 48 °. In addition, the “stability of crystal form to the solvents commonly used in production of preparations” value in data set [4] was “unstable”. Besides, the “Tmax (time to reach a maximum plasma concentration)” value in data set [5] was 5.8 ± 1.60 h. Further, the Cmax in data set [5] (female, dog, plasma, po, 0.3 mg/kg, read-out: Cmax (maximum plasma concentration)) turned out to be 128 ± 19.2 ng/mL.
